These results are taken from BindingDB's records for doi:10.1021/jm801322h (Pfizer, 2009).

Molecules are shown by their SMILES.

The target in this assay is T1, Gag-Pol polyprotein [588-1027] (Human immunodeficiency virus type 1 group M subtype B (isolate HXB2), UniProt P04585).
T1 construct: 588-1027
Briefly: Reverse Transcriptase Assay. The settings on record: pH 7.8; 37 °C. On the procedure: The inhibition of the RNA-dependent DNA polymerase activity of the HIV-1 reverse transcriptase enzyme was measured using a primer extension assay. The substrate-incorporated radioactivity was measured using the Topcount NXT with a reading time of 1 minute/well and IC50 were deduced from the dose response curves obtained.

`CNCc1n[nH]c2cccc(Oc3cc(C#N)cc(C#N)c3)c12` [5-({3-[(methylamino)methyl]-1H-indazol-4-yl}oxy)benzene-1,3-dicarbonitrile]: the IC50 is over 30 µM.

Usually IC50 stands for the midpoint of a concentration-inhibition curve. A lower IC50 goes with higher potency.
